Experimental data published in ChEMBL document CHEMBL1150464, “Glycosyl derivatives of NK2 tachykinin receptor antagonists” (Bioorg Med Chem Lett, 1996).
Activity calls are given as the source filed them. The calls are words filed in the database; no cut-off is given here. Peptide text beside a SMILES is read from it. * marks the point of attachment. βGlc = OC[C@H]1O[C@@H](*)[C@H](O)[C@@H](O)[C@@H]1O

Columns and labels:
Type in all cases: functional
[1] = biological target: T1, Substance-K receptor (Oryctolagus cuniculus) (UniProt P79218); assay: Compound was tested for its antagonistic activity against tachykinin NK2 receptor in isolated rabbit pulmonary artery (RPA).
T1 sequence (whole entry): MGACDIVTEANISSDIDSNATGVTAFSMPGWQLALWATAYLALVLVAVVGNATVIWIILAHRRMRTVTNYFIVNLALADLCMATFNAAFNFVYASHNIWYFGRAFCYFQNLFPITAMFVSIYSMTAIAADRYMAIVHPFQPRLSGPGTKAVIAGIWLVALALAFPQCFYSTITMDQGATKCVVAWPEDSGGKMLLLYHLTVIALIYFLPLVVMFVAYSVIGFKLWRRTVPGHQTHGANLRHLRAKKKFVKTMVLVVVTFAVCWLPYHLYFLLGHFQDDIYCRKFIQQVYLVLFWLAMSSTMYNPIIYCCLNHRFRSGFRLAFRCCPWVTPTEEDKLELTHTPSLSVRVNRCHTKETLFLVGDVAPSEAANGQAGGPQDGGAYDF

[2] = biological target: T2, Substance-K receptor (Mesocricetus auratus) (UniProt P51144); assay: Compound was tested for its antagonistic activity against tachykinin NK2 receptor in hamster trachea (HT).
T2 sequence (whole entry): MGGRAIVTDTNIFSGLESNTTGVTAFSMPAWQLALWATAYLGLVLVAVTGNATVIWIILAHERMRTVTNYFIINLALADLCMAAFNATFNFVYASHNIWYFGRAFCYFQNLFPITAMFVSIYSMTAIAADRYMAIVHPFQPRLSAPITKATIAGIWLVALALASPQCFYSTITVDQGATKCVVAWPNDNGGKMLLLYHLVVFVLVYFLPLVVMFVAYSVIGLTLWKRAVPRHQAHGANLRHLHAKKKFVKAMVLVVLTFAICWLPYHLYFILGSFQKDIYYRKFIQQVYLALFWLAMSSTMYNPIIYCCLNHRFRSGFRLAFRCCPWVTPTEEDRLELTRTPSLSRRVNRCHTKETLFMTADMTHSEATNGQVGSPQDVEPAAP

[3] = biological target: T2, Substance-K receptor (Mesocricetus auratus); assay: Compound was tested for its antagonistic activity against tachykinin NK2 receptor in hamster trachea (HT); inactive up to 10 uM

SMILES	pKB [1]	pKB [2]	pKB [3]
CC(C)[C@H](NC(=O)[C@H](Cc1c[nH]c2ccccc12)NC(=O)[C@H](Cc1ccc(O)cc1)NC(=O)[C@H](CC(=O)O)NC(=O)[C@@H](N)Cc1ccc(O[C@@H]2O[C@H](CO)[C@@H](O)[C@H](O)[C@H]2O)cc1)C(=O)N[C@@H](Cc1c[nH]c2ccccc12)C(=O)N[C@H](Cc1c[nH]c2ccccc12)C(=O)N[C@@H](CCCCN)C(N)=O	7.2	< 5	
CC(C)[C@H](NC(=O)[C@H](Cc1c[nH]c2ccccc12)NC(=O)[C@H](Cc1ccc(O[C@@H]2O[C@H](CO)[C@@H](O)[C@H](O)[C@H]2O)cc1)NC(=O)[C@@H](N)CC(=O)O)C(=O)N[C@@H](Cc1c[nH]c2ccccc12)C(N)=O (H-DY(βGlc)WVW-NH2)	< 5		inactive
CC(C)[C@H](NC(=O)[C@H](Cc1c[nH]c2ccccc12)NC(=O)[C@H](Cc1ccc(O)cc1)NC(=O)[C@@H](N)CC(=O)O)C(=O)N[C@H](Cc1c[nH]c2ccccc12)C(=O)N[C@@H](Cc1c[nH]c2ccccc12)C(=O)N[C@@H](CCCCN)C(N)=O	8.1	5.6	
CC(C)[C@H](NC(=O)[C@H](Cc1c[nH]c2ccccc12)NC(=O)[C@H](Cc1ccc(O[C@@H]2O[C@H](CO)[C@@H](O)[C@H](O)[C@H]2O)cc1)NC(=O)[C@@H](N)CC(=O)O)C(=O)N[C@@H](Cc1c[nH]c2ccccc12)C(=O)N[C@H](Cc1c[nH]c2ccccc12)C(=O)N[C@@H](CCCCN)C(N)=O	6.2		inactive
CC(C)[C@H](NC(=O)[C@@H](Cc1c[nH]c2ccccc12)NC(=O)[C@H](Cc1ccc(O)cc1)NC(=O)[C@@H](N)CC(=O)O)C(=O)N[C@H](Cc1c[nH]c2ccccc12)C(N)=O	6.3	5.4	
CC(C)[C@H](NC(=O)C(Cc1c[nH]c2ccccc12)NC(=O)[C@H](Cc1ccc(O)cc1)NC(=O)[C@H](CC(=O)O)NC(=O)[C@@H](N)CO[C@@H]1O[C@H](CO)[C@@H](O)[C@H](O)[C@H]1O)C(=O)NC(Cc1c[nH]c2ccccc12)C(N)=O (stereo in doubt)	< 6	< 6	
CC(C)[C@H](NC(=O)[C@H](Cc1c[nH]c2ccccc12)NC(=O)[C@H](Cc1ccc(O)cc1)NC(=O)[C@H](CC(=O)O)NC(=O)[C@@H](N)CO[C@@H]1O[C@H](CO)[C@@H](O)[C@H](O)[C@H]1O)C(=O)N[C@@H](Cc1c[nH]c2ccccc12)C(=O)N[C@H](Cc1c[nH]c2ccccc12)C(=O)N[C@@H](CCCCN)C(N)=O	7.3	< 5	
